Experimental data from patent US10653141B2, “Compositions and methods for attracting mosquitoes and repelling sand flies” (priority 2014, dated 2020).

How the values were obtained:
mosquitoes = assay: Laboratory and mesocosm trials of Vectrax bait blended with insecticide; type: in vivo
From the text: Vectrax Bait Stations. To apply Vectrax within bait stations, the formulation—again, previously shaken or stirred—is loaded into a reservoir that provides the target insects with easy access to the attractant material, similar to a hummingbird feeder. […] In order to maintain maximum A&K efficiency, the toxicant component should be blended into the Vectrax attractant formulation as close to the time of application as possible. The attractant or A&K formulation may be loaded into the bait station in amounts ranging from a few grams to several liters, depending on the desired field life. If desired, a sponge or other absorbent material may be applied with the formulation, to facilitate landing by the mosquitoes. As with Vectrax-baited traps, Vectrax bait stations may be deployed singly, as a means to divert or attract and kill mosquitoes in sensitive environments (i.e., rural residences, backyards, recreational activity sites), or as part of a mosquito management strategy, placed at whatever locations and whatever density is thought to be required.

Phlebotomus dubosqui = assay: Dual-choice bioassay, treated vs control chamber; type: in vivo; details: 1,200 mg DEET
From the text: Through a series of dual-choice bioassays, a new combination of plant volatile semiochemicals was identified, which acts as a powerful repellent against two vector species of sand flies, Lutzomyia longipalpis and Phlebotomus dubosqui (vectors of leishmaniasis). […] Female sand flies repelled from host environments will be less likely to obtain a blood meal, reducing egg production, while aggregation by males, which typically occurs near hosts, will also be impeded by the presence of a repellent. Both of these interventions will lead to a decrease in reproductive success within the treated area, and over time, a reduction in sand fly population size.
Vectrax can also be deployed as a vehicle for the controlled release of repellent plant volatiles, to manage sand fly populations. […] This plant-based repellent formulation could reduce sand fly populations in a number of ways. Female sand flies repelled from host environments by Vectrax will be less likely to obtain a blood meal, reducing egg production, while lek formation by males, which typically occurs near hosts, will also be impeded by the presence of a repellent. Both of these interventions will lead to a decrease in reproductive success within the treated area, and over time, a reduction in sand fly population size.

| Structure (SMILES) | efficacy as insecticide blended into Vectrax attract and kill bait (mosquitoes) | flies selecting the untreated over the treated chamber (repellency) (Phlebotomus dubosqui) [%] |
| --- | --- | --- |
| CNC(=O)c1cc(C#N)cc(C)c1NC(=O)c1cc(Br)nn1-c1ncccc1Cl [cyazypyr] | quite effective | – |
| CCN(CC)C(=O)c1cccc(C)c1 [DEET, N, N-diethyl-meta-toluamide] | – | 79 |
